Measured values from the NIST ThermoML archive (doi:10.1016/j.jct.2018.12.040).
Numbers after ± are expanded uncertainties.

Details: Liquid; for mass density: 298.15 K, 101.33 kPa, Pycnometric method

For `C1CC1C(C1CC1)C1CC1` [tricyclopropylmethane], the mass density was 850 ± 1 kg/m3 and the Normal boiling temperature (Distillation) was 160 ± 2 °C.
Compound `O=[N+]([O-])C(C1CC1)(C1CC1)[N+](=O)[O-]` [dicyclopropyldinitromethane] has a mass density of 1239.7 ± 1 kg/m3 and a Normal boiling temperature (boiling in a capillary) of 290 ± 3 °C.
